Reference: the supplement of paper PMC10307832

What was measured:
Assay in all cases: relative viability (nuclei count vs DMSO), 5 days (fraction); higher = more cells survive
Cediranib + Lapatinib = compound: COc1cc2c(Oc3ccc4[nH]c(C)cc4c3F)ncnc2cc1OCCCN1CCCC1 [Cediranib] + CS(=O)(=O)CCNCc1ccc(-c2ccc3ncnc(Nc4ccc(OCc5cccc(F)c5)c(Cl)c4)c3c2)o1 [Lapatinib] (partner 2 µM)
Method in brief: (§1)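 Dosing by pin tool came one day after lung cancer cell lines were seeded in 1536-well plates, using either one drug or a fixed anchor-drug dose plus five library-drug doses (not always all listed) in √10 steps. After 5 days, nuclei were counted on 4× images. Relative viability is treated-well nuclei count divided by vehicle-well nuclei count, and values are medians of duplicate plates.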

[1] = compound: O=C(C[C@H]1NCCC[C@@H]1O)Cn1cnc2cc(Br)c(Cl)cc2c1=O (racemic) [Halofuginone] + Nc1nc2[nH]cc(CCc3ccc(C(=O)N[C@@H](CCC(=O)O)C(=O)O)cc3)c2c(=O)[nH]1 [Pemetrexed] (partner 0.2 µM)
Method in brief: as §1

Cediranib + Pemetrexed = compound: COc1cc2c(Oc3ccc4[nH]c(C)cc4c3F)ncnc2cc1OCCCN1CCCC1 [Cediranib] + Nc1nc2[nH]cc(CCc3ccc(C(=O)N[C@@H](CCC(=O)O)C(=O)O)cc3)c2c(=O)[nH]1 [Pemetrexed] (partner 0.2 µM)
Method in brief: as §1

Cediranib + Foretinib = compound: COc1cc2c(Oc3ccc4[nH]c(C)cc4c3F)ncnc2cc1OCCCN1CCCC1 [Cediranib] + COc1cc2c(Oc3ccc(NC(=O)C4(C(=O)Nc5ccc(F)cc5)CC4)cc3F)ccnc2cc1OCCCN1CCOCC1 [Foretinib] (partner 0.25 µM)
Method in brief: as §1

Work on UMC-11 yielded a relative viability (Cediranib + Lapatinib; first compound 0.04 µM) of 1.07, a relative viability (Cediranib + Lapatinib; first compound 0.1265 µM) of 0.48 and a relative viability (Cediranib + Lapatinib; first compound 0.4 µM) of 0.938. The relative viability (Cediranib + Lapatinib; first compound 1.265 µM) was 0.525, the relative viability (Cediranib + Lapatinib; first compound 4 µM) was 0.963 and the relative viability ([1]; first compound 0.001 µM) was 0.881. The relative viability ([1]; first compound 0.003162 µM) was 0.834, the relative viability ([1]; first compound 0.01 µM) was 0.727 and the relative viability ([1]; first compound 0.03162 µM) was 0.651. The relative viability ([1]; first compound 0.1 µM) was 0.443, the relative viability (Cediranib + Pemetrexed; first compound 0.04 µM) was 0.848 and the relative viability (Cediranib + Pemetrexed; first compound 0.1265 µM) was 0.752. It also gave a relative viability (Cediranib + Pemetrexed; first compound 0.4 µM) of 0.738, a relative viability (Cediranib + Pemetrexed; first compound 1.265 µM) of 0.824 and a relative viability (Cediranib + Pemetrexed; first compound 4 µM) of 0.764. It also gave a relative viability (Cediranib + Foretinib; first compound 0.04 µM) of 1.1, a relative viability (Cediranib + Foretinib; first compound 0.4 µM) of 1.03 and a relative viability (Cediranib + Foretinib; first compound 4 µM) of 1.05.
